Results published in patent publication US12054479B1, “Multicyclic compounds” (SLAP Pharmaceuticals LLC, priority 2022, dated 2024).

What was measured:
[1] = target: T1, PARP1 (Homo sapiens, UniProt P09874); assay: cell-based assay (Table 1); proliferation assay (PARP inhibitors) in DLD-1 wt and DLD-1 BRCA2, CTG detection; design: endogenous in cells; host or cells: DLD-1 wt and DLD-1 BRCA2 (-/-); settings: Table 1, results of the cell-based assay; cell line (DLD-1 wt or DLD-1 BRCA2) not given
Protocol: Proliferation Assay (PARP Inhibitors) in DLD-1 wt and DLD-1 BRCA2
DLD-1-wt and DLD-1 mutant cells are cultured in RPMI 1640+10% FBS+1% PS. The cells are harvested into culture media for 2-3 days. The cells are diluted into culture media (density 2˜3×10^6) and 40 uL of cell suspension (50 cells/well for DLD-1 wt and 50 cells/well for DLD-1 BRCA (−/−). The plates are covered and spun at rt at 1000 rpm, for 1 minute and then transferred. The plates are placed into 37° C. 5% CO2 incubator overnight. Test compounds are dissolved at 10 mM DMSO stock solution and then 40 uL of stock solution is transferred to a 384 PP-plate. A 10-point dilution is carried out by transferring 10 uL compound into 30 μL DMSO by using TECAN (EVO200) liquid handler. The plates are spun at rt at 1000 rpm for 1 minute and then shaken on a plate shaker for 2 minutes. Forty nL of diluted compound is transferred into the cell plate by using a liquid handler. After 7 days of incubation, a CTG detection assay is performed. The CTG detection assay is carried out by removing the plates from the incubators and then equilibrated at rt for 15 minutes. The CellTiter Glo reagents are thawed and equilibrated at rt. CellTiter-Glo reagent (30 μL) is added into each well, and the plates are placed at rt for 30 minutes followed by reading on EnVision. The inhibition activity is calculated using the formula: % Inhibition=100×(LumHC−LumSample)/(LumHC−LumLC).
In Table 1, ‘A’ indicates an IC50 of <0.1 μM, ‘B’ indicates an IC50 of ≥0.1 μM and <1.0 μM, and ‘C’ indicates an IC50 of ≥1.0 μM. As shown by the results in Table 1, compounds of Formula (I), including pharmaceutically acceptable salts thereof, are effective PARP1 inhibitors.

[2] = target: T1, PARP1; assay: biochemical assay (Table 2); FP binding assay (PARP1, PARP2) with PARPi-FL; settings: Table 2, results of the biochemical assay
Protocol: FP Binding Assay (PARP1, PARP2)
The PARP1 and PARP 2 protein and the PARPi-FL were purchased from BPS Bioscience. The assay buffer was 50 mM Tris pH 8.0, 0.001% Triton X-100, 10 mM MgCl2, 150 mM NaCl. The compounds were diluted into top point concentration in 384PP-plate and transferred serially into an Optiplate-384F plate. Compound (20 nL) or DMSO was added to assay plate and then 10 uL of 40 nM PARP1 or PARP2 (diluted using assay buffer) was added. The assay plate was centrifuged at 1000 rpm for 1 min and then incubated for 30 min at rt. 6 nM PARPi-FL (diluted using assay buffer) (10 uL) was added to the plate (final concentration of PARP1 and PARP2 was 20 nM, and PARPi-FL was 3 nM). After centrifuging at 1000 rpm for 1 min, the assay plate was incubated at rt 4 h. The plates were read using Envision with Excitation filter. The data analysis was done by calculating the inhibition rate using mP value using the following equation. Inhibition (%)=(1−mpC−mpL)/mpH−mpL×100%.
As shown by the results in Table 2, compounds of Formula (I), including pharmaceutically acceptable salts thereof, are effective PARP1 inhibitors.

T1 sequence (P09874 whole entry): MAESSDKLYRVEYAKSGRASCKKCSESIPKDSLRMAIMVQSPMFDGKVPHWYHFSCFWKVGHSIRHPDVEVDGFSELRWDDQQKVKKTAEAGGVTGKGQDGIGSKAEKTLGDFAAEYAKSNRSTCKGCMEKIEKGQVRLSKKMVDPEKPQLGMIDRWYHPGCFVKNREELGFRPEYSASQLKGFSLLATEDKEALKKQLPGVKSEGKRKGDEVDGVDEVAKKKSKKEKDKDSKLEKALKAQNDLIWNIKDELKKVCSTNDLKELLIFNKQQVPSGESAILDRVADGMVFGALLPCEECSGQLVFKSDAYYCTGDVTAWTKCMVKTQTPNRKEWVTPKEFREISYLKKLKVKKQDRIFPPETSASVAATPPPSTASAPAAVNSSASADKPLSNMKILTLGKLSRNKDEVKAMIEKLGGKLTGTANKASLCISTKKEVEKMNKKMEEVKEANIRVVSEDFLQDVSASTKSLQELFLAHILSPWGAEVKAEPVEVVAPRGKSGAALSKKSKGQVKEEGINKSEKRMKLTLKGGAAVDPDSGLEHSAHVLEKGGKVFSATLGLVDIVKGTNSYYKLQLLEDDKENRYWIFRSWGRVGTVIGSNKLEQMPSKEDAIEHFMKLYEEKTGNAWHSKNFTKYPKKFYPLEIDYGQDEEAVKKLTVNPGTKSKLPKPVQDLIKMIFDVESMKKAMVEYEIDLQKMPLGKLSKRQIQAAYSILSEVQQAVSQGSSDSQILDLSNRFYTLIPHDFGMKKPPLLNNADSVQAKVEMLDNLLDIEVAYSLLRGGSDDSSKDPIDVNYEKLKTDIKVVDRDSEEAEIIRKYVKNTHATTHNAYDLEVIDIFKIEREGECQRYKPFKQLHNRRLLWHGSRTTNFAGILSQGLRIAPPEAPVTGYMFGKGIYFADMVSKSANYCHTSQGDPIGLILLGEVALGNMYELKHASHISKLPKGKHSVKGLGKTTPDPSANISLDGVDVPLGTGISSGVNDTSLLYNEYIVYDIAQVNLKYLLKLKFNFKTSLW

Row | IC50 [1] [nM] | SMILES | IC50 [2] [nM]
1 | < 100 | CCC1Oc2ccc(CN3CCN(c4ccc(C(=O)NC)nc4F)CC3)c(F)c2NC1=O (single isomer, unassigned) [Compound 3aa] | 
2 | < 100 | CCC1Oc2ccc(CN3CCN(c4ccc(C(=O)NC)nc4F)CC3)c(F)c2NC1=O (single isomer, unassigned) [Compound 3ab] | 

Row | SMILES | IC50 [1] [nM] | IC50 [2] [nM]
3 | CNC(=O)c1ccc(N2CCN(Cc3ccc4c(c3F)NC(=O)C3(CC3)O4)CC2)c(C)n1 [Compound A8] | < 100 | < 5
